How the values were obtained:
[1] = test system: Candida albicans ATCC 1031; assay: Test 2 (DGHM), growth inhibition by dilutions, 72 hours at 37° C.; type: cell-based
Experimental: (§1) Another test was carried out a basis of the following solutions • 100 ml of a 0.1% solution of chlorohexidine digluconate (pH 6); and • 100 ml of a 0.1% solution of Bardac22®.
(§2) The activity of these solutions, alone or in combination, was more particularly tested in respect of Staphylococcus aureus ATCC 6538, Escherichia coli ATCC 11229 and Candida albicans ATCC 10231.
(§3) The tests were conducted in accordance with the procedure described in Chapter I/2.1 and 2.2 of Tichtlinien für die Prüfung und Bewertung chemischer Desinfektionsverfahren der DGHM/Guidelines for Testing and Evaluating Chemical Disinfection Processes of DGHM as at 1.1, 1981.
(§4) Tables IX, X and XI respectively illustrate the bactericidal and fungicidal activity of a 0.1% aqueous solution of chlorohexidine digluconate, a 0.1% aqueous solution of Bardac22® and a mixture of equal parts of both compounds. The procedures of which these Tables illustrate the results comprise incubation of 72 hours at 37° C. and the use of the following inactivating substances as controls: • A: 3% Tween®80+0.3% lecithin+0.1% cysteine • B: 3% Tween®80+3% saponin+0.1% cysteine+0.1% histidine; • C: 3% Tween®80+0.3% lecithin+0.1% histidine+0.5% sodium thiosulphate.
(§5) In these Tables, the sign “+” indicates an increase and the sign “−” denotes the absence of growth.

E. coli ATCC 11229 = assay: as above; type: cell-based, Escherichia coli
Experimental: as §1, §2, §3, §4, §5

human fibroblastic cells = assay: Cytotoxicity check of the products on human fibroblastic cells; type: cell-based; conditions: 0.04% solution at a dilution of 10^−3; 0.1 ml in 1 ml medium; 3 days
Experimental: Cytotoxicity checks are conducted on the products for cellular cultures used in the tests, that is to say the human fibroblastic cells.
The cells are cultivated on a Dulbecco medium enriched with 10% fetal calf serum; at the moment of their use, the cells are washed and the same culture medium is used but without calf serum.
For each product tested or each composition, 10 tubes of cellular culture were used and after inoculation of the product, the tubes were kept under observation for 3 days.
Each product was, in succession, used pure and at dilutions of 10^−1, 10^−2, 10^−3 and added to culture tubes containing 1 ml of nutrient medium in a volume of 0.1 ml.

S. aureus ATCC 6538 = assay: Test 2 (DGHM), growth inhibition by dilutions, 72 hours at 37° C.; type: cell-based, Staphylococcus aureus
Experimental: as §1, §2, §3, §4, §5

spermatozoids = assay: Spermicidal action, vitality by eosine-nigrosine, 100 spermatozoids examined; type: cell-based, human (healthy volunteers)
Experimental: The various samples of sperm (one drop of sperm per sample) are obtained from healthy volunteers.
One drop of sperm is treated by eosine-nigrosine. A smear is then prepared and 100 spermatozoids examined with a microscope. The dead cells are coloured red, either totally or partially. The living cells are colourless.
The substances studied were Bardac® and chlorohexidine digluconate, tested alone and in association in accordance with the invention. The various stages of the procedure are set out in Tables XV to XVII.
The maximum contact time of the various substances and of the sperm was confined to 3 minutes in order to guarantee the effectiveness of the method under the conditions of use. The concentration of the active solutions in the sperm was limited to 10% in order to reduce the risks of toxicity of the products in respect of the mucosa.

[2] = 0.00625% vol/vol, inactivator A
[3] = 0.00625% vol/vol, inactivator B
[4] = 0.00625% vol/vol, inactivator C
[5] = 0.00625% vol/vol, no inactivator
[6] = 0.0125% vol/vol, no inactivator

## CCCCCCCCCC[N+](C)(C)CCCCCCCCCC.[Cl-] [Bardac ®, didecyl dimethyl ammonium chloride]
[1]
  concentration of active substance inhibiting growth: 0.0001%
  dilution of the 0.1% solution inhibiting growth: 0.1%
[1]; [2]
  growth: +
[1]; [3]
  growth: +
[1]; [4]
  growth: +
[1]; [5]
  growth: +
[1]; 0.0125% vol/vol, inactivator A
  growth: +
[1]; 0.0125% vol/vol, inactivator B
  growth: +
[1]; 0.0125% vol/vol, inactivator C
  growth: +
[1]; [6]
  growth: +
[1]; 0.025% vol/vol, inactivator A
  growth: +
[1]; 0.025% vol/vol, inactivator B
  growth: +
[1]; 0.025% vol/vol, inactivator C
  growth: +
[1]; 0.025% vol/vol, no inactivator
  growth: +
[1]; 0.05% vol/vol, inactivator A
  growth: +
[1]; 0.05% vol/vol, inactivator B
  growth: +
[1]; 0.05% vol/vol, inactivator C
  growth: +
[1]; 0.05% vol/vol, no inactivator
  growth: +
[1]; 0.1% vol/vol, inactivator A
  growth: +
[1]; 0.1% vol/vol, inactivator B
  growth: +
[1]; 0.1% vol/vol, inactivator C
  growth: +
[1]; 0.1% vol/vol, no inactivator
  growth: −
[1]; 0.5% vol/vol, inactivator A
  growth: +
[1]; 0.5% vol/vol, inactivator B
  growth: +
[1]; 0.5% vol/vol, inactivator C
  growth: +
[1]; 0.5% vol/vol, no inactivator
  growth: −
[1]; 1.0% vol/vol, inactivator A
  growth: +
[1]; 1.0% vol/vol, inactivator B
  growth: +
[1]; 1.0% vol/vol, inactivator C
  growth: +
[1]; 1.0% vol/vol, no inactivator
  growth: −
E. coli ATCC 11229
  concentration of active substance inhibiting growth: 0.0005%
  dilution of the 0.1% solution inhibiting growth: 0.5%
E. coli ATCC 11229; [2]
  growth: +
E. coli ATCC 11229; [3]
  growth: +
E. coli ATCC 11229; [4]
  growth: +
E. coli ATCC 11229; [5]
  growth: +
E. coli ATCC 11229; 0.0125% vol/vol, inactivator A
  growth: +
E. coli ATCC 11229; 0.0125% vol/vol, inactivator B
  growth: +
E. coli ATCC 11229; 0.0125% vol/vol, inactivator C
  growth: +
E. coli ATCC 11229; [6]
  growth: +
E. coli ATCC 11229; 0.025% vol/vol, inactivator A
  growth: +
E. coli ATCC 11229; 0.025% vol/vol, inactivator B
  growth: +
E. coli ATCC 11229; 0.025% vol/vol, inactivator C
  growth: +
E. coli ATCC 11229; 0.025% vol/vol, no inactivator
  growth: +
E. coli ATCC 11229; 0.05% vol/vol, inactivator A
  growth: +
E. coli ATCC 11229; 0.05% vol/vol, inactivator B
  growth: +
E. coli ATCC 11229; 0.05% vol/vol, inactivator C
  growth: +
E. coli ATCC 11229; 0.05% vol/vol, no inactivator
  growth: +
E. coli ATCC 11229; 0.1% vol/vol, inactivator A
  growth: +
E. coli ATCC 11229; 0.1% vol/vol, inactivator B
  growth: +
E. coli ATCC 11229; 0.1% vol/vol, inactivator C
  growth: +
E. coli ATCC 11229; 0.1% vol/vol, no inactivator
  growth: +
E. coli ATCC 11229; 0.5% vol/vol, inactivator A
  growth: +
E. coli ATCC 11229; 0.5% vol/vol, inactivator B
  growth: +
E. coli ATCC 11229; 0.5% vol/vol, inactivator C
  growth: +
E. coli ATCC 11229; 0.5% vol/vol, no inactivator
  growth: −
E. coli ATCC 11229; 1.0% vol/vol, inactivator A
  growth: +
E. coli ATCC 11229; 1.0% vol/vol, inactivator B
  growth: +
E. coli ATCC 11229; 1.0% vol/vol, inactivator C
  growth: +
E. coli ATCC 11229; 1.0% vol/vol, no inactivator
  growth: −
Human fibroblastic cells
  toxicity for the cell cultures: not toxic
S. aureus ATCC 6538
  concentration of active substance inhibiting growth: 0.0001%
  dilution of the 0.1% solution inhibiting growth: 0.1%
S. aureus ATCC 6538; [2]
  growth: +
S. aureus ATCC 6538; [3]
  growth: +
S. aureus ATCC 6538; [4]
  growth: +
S. aureus ATCC 6538; [5]
  growth: +
S. aureus ATCC 6538; 0.0125% vol/vol, inactivator A
  growth: +
S. aureus ATCC 6538; 0.0125% vol/vol, inactivator B
  growth: +
S. aureus ATCC 6538; 0.0125% vol/vol, inactivator C
  growth: +
S. aureus ATCC 6538; [6]
  growth: +
S. aureus ATCC 6538; 0.025% vol/vol, inactivator A
  growth: +
S. aureus ATCC 6538; 0.025% vol/vol, inactivator B
  growth: +
S. aureus ATCC 6538; 0.025% vol/vol, inactivator C
  growth: +
S. aureus ATCC 6538; 0.025% vol/vol, no inactivator
  growth: +
S. aureus ATCC 6538; 0.05% vol/vol, inactivator A
  growth: +
S. aureus ATCC 6538; 0.05% vol/vol, inactivator B
  growth: +
S. aureus ATCC 6538; 0.05% vol/vol, inactivator C
  growth: +
S. aureus ATCC 6538; 0.05% vol/vol, no inactivator
  growth: +
S. aureus ATCC 6538; 0.1% vol/vol, inactivator A
  growth: +
S. aureus ATCC 6538; 0.1% vol/vol, inactivator B
  growth: +
S. aureus ATCC 6538; 0.1% vol/vol, inactivator C
  growth: +
S. aureus ATCC 6538; 0.1% vol/vol, no inactivator
  growth: −
S. aureus ATCC 6538; 0.5% vol/vol, inactivator A
  growth: +
S. aureus ATCC 6538; 0.5% vol/vol, inactivator B
  growth: +
S. aureus ATCC 6538; 0.5% vol/vol, inactivator C
  growth: +
S. aureus ATCC 6538; 0.5% vol/vol, no inactivator
  growth: −
S. aureus ATCC 6538; 1.0% vol/vol, inactivator A
  growth: +
S. aureus ATCC 6538; 1.0% vol/vol, inactivator B
  growth: +
S. aureus ATCC 6538; 1.0% vol/vol, inactivator C
  growth: +
S. aureus ATCC 6538; 1.0% vol/vol, no inactivator
  growth: −
spermatozoids; Bardac solution 0.4%, contact 1 min, 5% in the sperm
  vitality (living spermatozoids): 10.7 ± 7.6
spermatozoids; Bardac solution 0.4%, contact 1 min, 10% in the sperm
  vitality (living spermatozoids): 5 ± 6.4
spermatozoids; Bardac solution 0.4%, contact 3 min, 5% in the sperm
  vitality (living spermatozoids): 0.8 ± 1.2
spermatozoids; Bardac solution 0.4%, contact 3 min, 10% in the sperm
  vitality (living spermatozoids): 0.8 ± 1
spermatozoids; Bardac solution 0.6%, contact 1 min, 5% in the sperm
  vitality (living spermatozoids): 10.5 ± 9.7
spermatozoids; Bardac solution 0.6%, contact 1 min, 10% in the sperm
  vitality (living spermatozoids): 9.2 ± 12.9
spermatozoids; Bardac solution 0.6%, contact 3 min, 5% in the sperm
  vitality (living spermatozoids): 2.2 ± 4.5
spermatozoids; Bardac solution 0.6%, contact 3 min, 10% in the sperm
  vitality (living spermatozoids): 0.4 ± 0.9
spermatozoids; Bardac solution 0.8%, contact 1 min, 5% in the sperm
  vitality (living spermatozoids): 9.7 ± 10.2
spermatozoids; Bardac solution 0.8%, contact 1 min, 10% in the sperm
  vitality (living spermatozoids): 1.8 ± 2.5
spermatozoids; Bardac solution 0.8%, contact 3 min, 5% in the sperm
  vitality (living spermatozoids): 0
spermatozoids; Bardac solution 0.8%, contact 3 min, 10% in the sperm
  vitality (living spermatozoids): 0
spermatozoids; Bardac solution 1%, contact 1 min, 5% in the sperm
  vitality (living spermatozoids): 0
spermatozoids; Bardac solution 1%, contact 1 min, 10% in the sperm
  vitality (living spermatozoids): 0
spermatozoids; Bardac solution 1%, contact 3 min, 5% in the sperm
  vitality (living spermatozoids): 0
spermatozoids; Bardac solution 1%, contact 3 min, 10% in the sperm
  vitality (living spermatozoids): 0

From patent US7381521B2, “Anti-pathogenic composition useful in blood preservation” (Altachem Pharma Ltd., priority 2001, dated 2008)
